Measured values reported in ChEMBL document CHEMBL1127108, “Synthesis of ecdysteroid inhibitors of ecdysone biosynthesis. Inhibition of the C-25 hydroxylation” (1993).

Columns and labels:
Locusta migratoria [1] = assay: In vitro inhibitory activity of compound on ecdysone biosynthesis in larval prothoracic glands of Locusta migratoria at 10e-5 M concentration; assay type: functional
Locusta migratoria [2] = assay: In vitro inhibitory activity of compound on ecdysone biosynthesis in larval prothoracic glands of Locusta migratoria; NI: No inhibition was observed; assay type: functional

| Compound | inhibition at 10 µM (Locusta migratoria [1]) [%] | inhibition (Locusta migratoria [2]) |
| --- | --- | --- |
| C#CC[C@@H](O)C(C)C1CCC2C3CC=C4C[C@@H](O)CC[C@]4(C)C3CC[C@@]21C (stereo not given in full) | 66 |  |
| C#CC[C@H](O)C(C)C1CC[C@H]2[C@@H]3CC=C4C[C@@H](O)CC[C@]4(C)[C@H]3CC[C@]12C (stereo not given in full) | 37 |  |
| C#CC[C@@H](O)C(C)C1CC[C@H]2[C@@H]3CC=C4C[C@@H](O)CC[C@]4(C)[C@H]3CC[C@]12C (stereo not given in full) | 36 |  |
| CC(C1CCC2C3CC=C4C[C@@H](O)CC[C@]4(C)C3CC[C@@]21C)[C@@H](O)C#C[Si](C)(C)C (stereo not given in full) |  | No inhibition |
| C#C[C@H](O)C(C)C1CCC2C3CC=C4C[C@@H](O)CC[C@]4(C)C3CC[C@@]21C (stereo not given in full) | 36 |  |
